The results in this text go back to patent publication US20230105212A1, “BIPHENYL DERIVATIVE INHIBITOR, PREPARATION METHOD THEREFOR AND USE THEREOF” (SHANGHAI HANSOH BIOMEDICAL CO., LTD., priority 2020, published 2023).

Assay [1] deals with T1, PD-L1 protein on the surface of MC38-hPDL1 tumor cells (Homo sapiens, UniProt Q9NZQ7).
T1 construct: expressed in transfected cells; host or cells: MC38-hPDL1 (mouse colon cancer cells)
In words: Induction of endocytosis of PD-L1 on the surface of tumor cells (flow cytometry). The assay is classed as cell-based. The following applies: 16 hours incubation; for Emax: MC38-hPDL1 cells, read-out: MC38 maximum endocytosis rate; for IC50: inducing endocytosis of PD-L1, MC38-hPDL1 cells, read-out: MC38 IC50. The text has this: Test Embodiment 2. Test of the Activity of Compounds of the Present Disclosure on Inducing the Endocytosis of PD-L1 Protein on the Surface of Tumor Cells
Experimental purpose: The purpose of this test embodiment was to test the activity of the compound on inducing the endocytosis of PD-L1 on the surface of tumor cells.
Experimental method: In order to test the activity of the compound on inducing the endocytosis of PD-L1, in this experiment, the activity of the compound on inducing the endocytosis of PD-L1 was tested by detecting the change degree of PD-L1 on the tumor cell surface with fluorescently labeled anti-PD-L1 antibody, and the IC50 of activity of the compound on inducing the endocytosis of PD-L1 was obtained.
The mouse colon cancer cells MC38-hPDL1 with high expression of hPD-L1 were collected, and adjusted to a suitable density and plated in a 24-well plate, and placed in a 37° C., 5% CO2 incubator to adhere overnight. Compounds were prepared into different concentrations by medium and added to a 24-well plate, and a vehicle control well was set up. After the cells were incubated in a 37° C., 5% CO2 incubator for 16 hours, the 24-well plate was taken out, and MC38-hPDL1 cells with different treatments in the plate were collected. After the cells were washed once with FACS buffer (PBS containing 0.5% BSA), and the cells were prepared to an appropriate density with FACS buffer. PE Mouse Anti-Human CD274 antibody (BD Pharmingen #557924) was added, and the cells were shaken at room temperature and incubated for 30 minutes without light, then the cells were washed twice with FACS buffer, resuspended in 100 μL of PBS, and a flow cytometer was used to detect the fluorescent signal on the cell surface, and the isotype control was set as a negative control.
The endocytosis rate of the compounds was calculated from the fluorescence signals of different treatment groups, and the compound concentration and endocytosis rate were fitted by nonlinear regression using GraphPad Prism software, and IC50 values were obtained, as shown in Table 2.

Assay [2] addresses T2, human PD-1/PD-L1 binding (Homo sapiens, UniProt Q9NZQ7).
T2 construct: PD-L1-His protein (19 to 238 amino acids) (Abcam #ab167713); purchased Abcam (PD-L1-His); R&D (PD-1-Fc) ab167713; 1086-PD
Nature of the assay: Inhibition of human PD-1/PD-L1 binding (TR-FRET/HTRF). The following applies: TR-FRET, PD-L1-His and PD-1-Fc; read-out: PD-1/PD-L1 binding IC50. From the text: Test Embodiment 1: Test of Inhibitory Effect of the Compounds of the Present Disclosure on Human PD-1/PD-L1 Binding
Experimental purpose: The purpose of this test embodiment was to measure the inhibitory activity of the compounds on human PD-1/PD-L1 binding.
Experimental reagents: Binding Domain diluent buffer was purchased from Cisbio Company, Cat. No.: 62DLBDDF; MAb Anti-6HIS Eu cryptate Gold was purchased from Cisbio Company with the article number of 61HI2KLA; PAb Anti Human IgG-XL665 was purchased from Cisbio Company with the article number of 61HFCXLB; PD-L1-His protein was purchased from Abcam Company with the article number of ab167713; PD-1-Fc protein was purchased from R&D Company with the article number of 1086-PD; Detection buffer was purchased from Cisbio Company with the article number of 62SDBRDD; 384-well plate was purchased from PerkinElmer Company with the article number of 6007290.
Experimental method: In order to test the inhibitory activity of the compounds on human PD-1/PD-L1 binding, the method of time-resolved fluorescence resonance energy transfer (TR-FRET) was used in this experiment to test the inhibition of the compounds on human PD-1/PD-L1 binding, and the half inhibitory concentration IC50 of inhibitory activity of the compounds on human PD-1/PD-L1 binding was obtained.
This experiment was performed in a 384-well plate with a total reaction volume of 20 μL. Compounds were diluted to different concentrations (10 μM or 1 μM starting, 3-fold dilution, 11 doses) using assay buffer Binding Domain diluent buffer (Cisbio #62DLBDDF), then PD-L1-His protein (19 to 238 amino acids) (Abcam #ab167713) was diluted to 10 nM with assay buffer, and PD-1-Fc protein (25 to 167 amino acids) (R&D #1086-PD) was diluted to 20 nM with assay buffer; the compound, PD-L1 protein and PD-1 protein were added to a 384-well plate respectively, and the total volume was 10 μL, then centrifuged at 1000 rpm for 1 minute to mix well, and incubated for 60 minutes at room temperature. Then 10 μL of a mixed solution of MAb Anti-6HIS Eu cryptate Gold (Cisbio #61HI2KLA) and PAb Anti Human IgG-XL665 (Cisbio #61HFCXLB) diluted by HTRF Detection buffer was added to each well, and centrifuged at 1000 rpm for 1 minute to mix well. The reaction was carried out at room temperature for 3 hours or at 4° C. overnight, then a microplate reader (BioTek Synergy H1) was put into for reading; the excitation wavelength was 340 nm, and the emission wavelengths were 620 nm and 665 nm.
The ratio of fluorescence readings at 620 nm and 665 nm (665 nm/620 nm) was calculated, and the inhibition rate was calculated.

T2 sequence (Q9NZQ7 19-238): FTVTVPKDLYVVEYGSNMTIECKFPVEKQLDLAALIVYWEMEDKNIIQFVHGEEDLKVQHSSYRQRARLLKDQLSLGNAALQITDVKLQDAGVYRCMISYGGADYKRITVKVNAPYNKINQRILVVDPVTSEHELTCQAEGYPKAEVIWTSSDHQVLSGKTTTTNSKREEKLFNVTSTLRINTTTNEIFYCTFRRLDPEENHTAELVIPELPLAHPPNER
T1 sequence (Q9NZQ7 19-290): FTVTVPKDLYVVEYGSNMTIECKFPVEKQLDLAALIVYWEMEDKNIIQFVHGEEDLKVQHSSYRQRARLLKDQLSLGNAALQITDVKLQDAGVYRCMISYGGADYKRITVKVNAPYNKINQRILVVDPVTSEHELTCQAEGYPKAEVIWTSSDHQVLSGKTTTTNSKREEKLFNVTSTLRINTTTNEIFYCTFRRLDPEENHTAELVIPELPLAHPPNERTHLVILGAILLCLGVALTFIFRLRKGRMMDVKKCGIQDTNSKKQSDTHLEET

Regarding `COc1cc(C(=O)Nc2cccc(-c3cccc(NC(=O)c4nc5c(n4C)CCN(C)C5)c3Cl)c2C)ncc1CNC1(C)COC1` [Embodiment 99, N-(2-Chloro-3′-(4-methoxy-5-(((3-methyloxetan-3-yl)amino)methyl)picolinamido)-2′-methyl-[1,1′-biphenyl]-3-yl)-1,5-dimethyl-4,5,6,7-tetrahydro-1H-imidazo[4,5-c]pyridine-2-carboxamide], the Emax in assay [1] came out at 91%. Also, the IC50 in assay [1] is 3.9 nM; in assay [2], 4.4 nM.
For `COc1cc(NCc2cnc(C(=O)Nc3cccc(-c4cccc(NC(=O)c5nc6c(n5C)CCN(C)C6)c4Cl)c3C)cc2OC)ccn1` [Embodiment 1, N-(2-Chloro-3′-(4-methoxy-5-(((2-methoxypyridin-4-yl)amino)methyl)picolinamido)-2′-methyl-[1,1′-biphenyl]-3-yl)-1,5-dimethyl-4,5,6,7-tetrahydro-1H-imidazo[4,5-c]pyridine-2-carboxamide] the same measures were 88%, 3.4 nM and 6.9 nM.
For `COc1cc(-c2cccc(-c3cccc(NC(=O)c4nc5c(n4C)CCN(C)C5)c3Cl)c2C)ncc1CNC1CCOCC1` [Embodiment 59, N-(2-Chloro-3′-(4-methoxy-5-(((tetrahydro-2H-pyran-4-yl)amino)methyl)pyridin-2-yl)-2′-methyl-[1,1′-biphenyl]-3-yl)-1,5-dimethyl-4,5,6,7-tetrahydro-1H-imidazo[4,5-c]pyridine-2-carboxamide] the same measures were 85%, 9.6 nM and 4.7 nM.
Regarding `COc1cc(C(=O)Nc2cccc(-c3cccc(NC(=O)c4nc5c(n4C)CCN(C)C5)c3Cl)c2C)ncc1CNCCF` [Embodiment 18, N-(2-Chloro-3′-(5-(((2-fluoroethyl)amino)methyl)-4-methoxypicolinamido)-2′-methyl-[1,1′-biphenyl]-3-yl)-1,5-dimethyl-4,5,6,7-tetrahydro-1H-imidazo[4,5-c]pyridine-2-carboxamide], in assay [1], the Emax came to 91% and the IC50 came to 1.5 nM. The IC50 in assay [2] came to 2.4 nM.
In the case of `COc1cc(C(=O)Nc2cccc(-c3cccc(NC(=O)c4nc5c(n4C)CCN(C)C5)c3Cl)c2C)ncc1CO` [Embodiment 49, N-(2-Chloro-3′-(5-(2-hydroxymethyl)-4-methoxypicolinamido)-2′-methyl-[1,1′-biphenyl]-3-yl)-1,5-dimethyl-4,5,6,7-tetrahydro-1H-imidazo[4,5-c]pyridine-2-carboxamide], in assay [1], the Emax came out at 93% and the IC50 amounted to 10.7 nM. Further, the IC50 in assay [2] came to 5.1 nM.
For `COc1nc(-c2cccc(-c3cccc(NC(=O)c4nc5c(n4C)CCN(C)C5)c3Cl)c2Cl)ccc1CN1CC2CC(C1)N2C(=O)CC#N` [Embodiment 208, N-(2,2′-Dichloro-3′-(5-((6-(2-cyanoacetyl)-3,6-diazabicyclo[3.1.1]heptan-3-yl)methyl)-6-methoxypyridin-2-yl)-[1,1′-biphenyl]-3-yl)-1,5-dimethyl-4,5,6,7-tetrahydro-1H-imidazo[4,5-c]pyridine-2-carboxamide], the Emax in assay [1] came out at 81%. Further, in assay [2], the IC50 turned out to be 9 nM.
Take `COc1cc(NCc2cnc(C(=O)Nc3cccc(-c4cccc(NC(=O)c5nc6c(n5C)CCN(CC5CC5)C6)c4Cl)c3Cl)cc2OC)ccn1` [Embodiment 83, 5-(Cyclopropylmethyl)-N-(2,2′-dichloro-3′-(4-methoxy-5-(((2-methoxypyridin-4-yl)amino)methyl)picolinamido)-[1,1′-biphenyl]-3-yl)-1-methyl-4,5,6,7-tetrahydro-1H-imidazo[4,5-c]pyridine-2-carboxamide]: in assay [2], the IC50 was found to be 2.7 nM.
The same measure, in the same setting: for `COc1cc(CN2CC(F)C2)cnc1C(=O)Nc1cccc(-c2cccc(NC(=O)c3nc4c(n3C)CCN(C)C4)c2Cl)c1C` [Embodiment 108, N-(2-Chloro-3′-(5-((3-fluoroazetidin-1-yl)methyl)-3-methoxypicolinamido)-2′-methyl-[1,1′-biphenyl]-3-yl)-1,5-dimethyl-4,5,6,7-tetrahydro-1H-imidazo[4,5-c]pyridine-2-carboxamide] the value was 8.4 nM.
